The values below come from US8753691B2, “Antiviral colloidal silver composition” (priority 1999, dated 2014).

The test system of the test is Mycobacterium bovis BCG (TMC 1028). It counts as cell-based.

For `Oc1ccccc1` [phenol], the “log reduction (phenol resistance)” value is recorded as “≈ 1.81”.
